Test results as given in patent US20220265646A1, “PIEZO AGONISTS FOR PREVENTING OR REVERTING ABNORMAL AMYLOID DEPOSITION” (ITÄ-SUOMEN YLIOPISTO, priority 2019, published 2022).

What was measured:
native Piezo1Rs = target: T1, native Piezo1Rs (Homo sapiens, UniProt Q92508); experiment: Calcium imaging of Yoda1-evoked Ca2+ influx in hiPSC-derived microglia; assay type: cell-based; conditions: 50 μM GdCI in BS pre-incubation
T1 construct: endogenous in cells; host or cells: human iPSC-derived microglia
Description: (§1) To study the calcium influx evoked by native Piezo1 Rs expressed in microglia cells the present inventors used short Yoda1 applications (2 s, 50 μM if not otherwise specified). For this purpose, human IPSO derived microglia cells and SV-40 (immortalized human microglia) cells were seeded on 7 mm cover slips 1 day prior to the imaging experiment. Cells were loaded with the calcium-sensitive fluorescent dye Fluo-4AM (5 μM) for 30 min at 37° C. Followed by wash-incubation for 15 min in Ab 20 μM, 50 μM GdCI and basic solution (BS) as a control at 37° C. The basic solution containing the following (BS, in mM): 2.5 KCl, 152 NaCl, 10 glucose, 2 CaCl2, and 10 HEPES at pH 7.4. Fluorescence was visualized using monochromatic light source (TILL Photonics GmbH) using Ex/Im 494/[…] and a CCD camera (SensiCam). Chemicals were applied using a fast perfusion system (RSC-200, BioLogic Science). To quantify the difference in the amplitude of calcium transients, the ratio values were normalized by subtracting a baseline and further divided by the amplitude of the calcium transient to the 2 sec application of the ionomycin. Data were pre-analyzed offline using the FEI offline analysis (TILL Photonics), and further analysis was automatized using MatLab. Quantitative data were expressed as means±SEM unless otherwise stated. Number of experiments is indicated by n. Significance assessed with the ANOVA test or Mann-Whitney t test for non-parametric data. Statistically significant differences were set at*p<0.05 and **p<0.01.
Differentiation of microglia. Differentiation of microglia was carried out as previously described with minor modifications (Abud et al., 2017). Shortly, on DO, iPSCs were dissociated to single cells with 0.5 mM EDTA or Accutase and were replated at a density of 6-,000-16,000 cells/cm2 on Matrigel in E8, 0.5% penicillin/streptomycin (P/S, 50 IU/50 […]), 5 ng/ml BMP4, 25 ng/ml activin a (both from Peprotech or Miltenyi Biotec), 1 μM CHIR 99021 (Axon or Stem Cell Technologies) and 10 μM Y-27632 to induce mesodermal differentiation. […]

Piezo1Rs = target: T2, Piezo1Rs (Homo sapiens, UniProt Q92508); experiment: Calcium imaging of Yoda1-evoked Ca2+ transients in SV-40 immortalized human microglia cell line; assay type: cell-based; conditions: SV-40 cells, n=13, p=0.00009
T2 construct: SV-40 immortalized human microglia cell line which endogenously express Piezo-1 and Piezo2Rs was used; endogenous in cells; host or cells: SV-40 immortalized human microglia cell line
Description: as §1, with “Chemicals were applied using a fast perfusion system (RSC-200, BioLogic Science).” left out, “Number of experiments is indicated by n.” left out, “Statistically significant differences were set at*p<0.05 and **p<0.01.” left out

T1 sequence (Q92508 whole entry): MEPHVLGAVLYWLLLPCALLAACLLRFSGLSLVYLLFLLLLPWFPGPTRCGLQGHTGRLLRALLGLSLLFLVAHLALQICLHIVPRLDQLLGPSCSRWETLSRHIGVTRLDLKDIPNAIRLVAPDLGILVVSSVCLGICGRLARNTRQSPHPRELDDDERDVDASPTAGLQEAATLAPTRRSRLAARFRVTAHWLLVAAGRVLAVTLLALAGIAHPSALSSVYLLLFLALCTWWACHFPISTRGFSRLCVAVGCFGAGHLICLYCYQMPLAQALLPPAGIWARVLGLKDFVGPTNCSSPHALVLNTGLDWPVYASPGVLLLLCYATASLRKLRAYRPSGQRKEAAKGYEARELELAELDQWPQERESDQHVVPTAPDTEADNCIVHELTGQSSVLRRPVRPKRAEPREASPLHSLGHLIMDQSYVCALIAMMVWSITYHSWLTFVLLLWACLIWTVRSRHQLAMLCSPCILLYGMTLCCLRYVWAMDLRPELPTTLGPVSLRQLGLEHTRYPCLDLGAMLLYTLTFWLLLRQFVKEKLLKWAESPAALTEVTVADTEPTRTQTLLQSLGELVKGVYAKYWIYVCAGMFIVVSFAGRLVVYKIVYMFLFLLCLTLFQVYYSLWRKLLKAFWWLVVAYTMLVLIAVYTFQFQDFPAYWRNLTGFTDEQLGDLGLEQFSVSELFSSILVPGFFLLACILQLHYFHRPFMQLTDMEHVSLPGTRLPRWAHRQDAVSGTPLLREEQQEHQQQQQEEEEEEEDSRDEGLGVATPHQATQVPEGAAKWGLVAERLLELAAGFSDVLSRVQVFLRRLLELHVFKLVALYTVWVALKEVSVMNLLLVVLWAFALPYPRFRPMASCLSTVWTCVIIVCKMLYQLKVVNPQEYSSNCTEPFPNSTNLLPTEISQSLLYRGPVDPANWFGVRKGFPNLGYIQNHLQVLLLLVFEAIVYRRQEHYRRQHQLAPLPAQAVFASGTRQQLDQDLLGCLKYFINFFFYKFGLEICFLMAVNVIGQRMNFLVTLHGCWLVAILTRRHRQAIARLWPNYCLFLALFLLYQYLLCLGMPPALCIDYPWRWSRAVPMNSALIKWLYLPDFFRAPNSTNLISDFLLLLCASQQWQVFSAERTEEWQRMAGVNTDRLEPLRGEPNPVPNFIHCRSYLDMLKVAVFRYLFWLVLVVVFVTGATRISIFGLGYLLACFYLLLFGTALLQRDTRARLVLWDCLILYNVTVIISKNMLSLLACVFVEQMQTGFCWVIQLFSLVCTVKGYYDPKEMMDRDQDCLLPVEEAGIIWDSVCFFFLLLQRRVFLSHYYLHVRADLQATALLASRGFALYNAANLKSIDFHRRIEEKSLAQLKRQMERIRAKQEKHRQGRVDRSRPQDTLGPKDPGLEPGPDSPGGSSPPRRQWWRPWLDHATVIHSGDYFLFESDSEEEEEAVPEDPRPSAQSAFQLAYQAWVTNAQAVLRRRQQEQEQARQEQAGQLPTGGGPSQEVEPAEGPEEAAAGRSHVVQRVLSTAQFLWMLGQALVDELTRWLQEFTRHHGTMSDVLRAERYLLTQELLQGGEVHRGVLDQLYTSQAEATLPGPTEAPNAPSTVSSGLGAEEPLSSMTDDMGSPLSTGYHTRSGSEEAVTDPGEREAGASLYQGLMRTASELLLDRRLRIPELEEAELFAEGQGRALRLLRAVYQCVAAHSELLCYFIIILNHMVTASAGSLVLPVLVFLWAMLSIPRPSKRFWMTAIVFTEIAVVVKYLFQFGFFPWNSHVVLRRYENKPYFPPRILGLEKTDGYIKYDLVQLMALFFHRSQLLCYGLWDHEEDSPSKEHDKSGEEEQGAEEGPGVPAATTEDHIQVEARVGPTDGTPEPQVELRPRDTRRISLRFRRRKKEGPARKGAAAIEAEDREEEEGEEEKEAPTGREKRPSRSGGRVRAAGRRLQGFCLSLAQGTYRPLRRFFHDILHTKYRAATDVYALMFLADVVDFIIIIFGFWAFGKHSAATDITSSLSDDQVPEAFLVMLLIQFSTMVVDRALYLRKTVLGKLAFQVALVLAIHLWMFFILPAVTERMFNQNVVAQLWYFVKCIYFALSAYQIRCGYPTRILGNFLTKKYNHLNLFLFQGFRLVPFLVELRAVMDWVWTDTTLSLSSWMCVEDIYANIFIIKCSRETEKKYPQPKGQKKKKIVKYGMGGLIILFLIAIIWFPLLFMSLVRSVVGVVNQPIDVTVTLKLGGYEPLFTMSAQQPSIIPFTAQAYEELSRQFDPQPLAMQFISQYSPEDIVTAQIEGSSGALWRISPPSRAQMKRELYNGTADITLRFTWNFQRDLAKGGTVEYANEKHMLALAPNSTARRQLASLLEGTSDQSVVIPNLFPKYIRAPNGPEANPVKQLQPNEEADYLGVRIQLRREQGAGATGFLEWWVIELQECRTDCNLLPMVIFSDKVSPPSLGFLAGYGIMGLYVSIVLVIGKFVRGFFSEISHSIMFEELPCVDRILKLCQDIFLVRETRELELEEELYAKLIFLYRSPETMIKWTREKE
T2 sequence (Q92508 whole entry): as above

[Cl][Gd]([Cl])[Cl] [GdCI, Gadolinium chloride]
Yoda1-activated Ca2+ transients after pre-incubation with GdCI (native Piezo1Rs; 50 μM Yoda1 2 s, n=5, p=0.0073): 0.10±0.1 | inhibition of Yoda1-activated Ca2+ transients (native Piezo1Rs; hiPSC microglia): 90% | Yoda1 activated Ca2+ transients after pre-incubation of GdCI (Piezo1Rs): 0.17±0.04
